The text below walks through data of US10987359B2, “Oxadiazepinone derivatives and methods of treating hepatitis B infections” (priority 2016, dated 2021).

Each structure is given as a SMILES string. Read-outs that look alike come from different tables or passages of the source.

For the test, the system named is HBV. In words: HBV replication inhibition assay (BDNA assay) in HepG2.2.15 cells. The format is cell-based. In a few lines:
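Supernatant encapsidated HBV DNA was measured by bDNA after DNase digestion and proteinase K release. Stably HBV-integrated HepG2.2.15 cells had two 3-day compound exposures (0.5% DMSO). Signals were background-subtracted and normalized to DMSO wells, and EC50 was obtained by four-parameter fit.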

The mark [1] stands for this setting: HBV replication assay (BDNA assay), HepG2.2.15 cells, read-out: DNA EC50.
[2] abbreviates: Hepatitis B virus, HepG2.2.15, HBV replication assay (BDNA assay), HepG2.2.15 cells, read-out: DNA EC50.

Consider `C[C@@H]1Cc2nn3c(c2CN1C(=O)Nc1ccc(F)c(C(F)(F)F)c1)C(=O)N(C)OC(CNS(C)(=O)=O)C3` (single isomer, unassigned) [Compound 179_D2, (4R*,9R)—N-(4-fluoro-3-(trifluoromethyl)phenyl)-2,9-dimethyl-4-(methylsulfonamidomethyl)-1-oxo-1,4,5,8,9,11-hexahydropyrido[4′,3′:3,4]pyrazolo[5,1-d][1,2,5]oxadiazepine-10(2H)-carboxamide], for which, under setting [1], the EC50 lay in the range of 1 to 100 nM.
In the case of `CCc1cccc(NC(=O)N2CCc3nn4c(c3C2)C(=O)N(C)OC(CO)C4)c1` (centres unmarked) [Compound 009, N-(3-ethylphenyl)-4-(hydroxymethyl)-2-methyl-1-oxo-1,4,5,8,9,11-hexahydropyrido[4′,3′:3,4]pyrazolo[5,1-d][1,2,5]oxadiazepine-10(2H)-carboxamide], the EC50 under setting [2] was in the range of 1 to 100 nM.
Consider `CC1Cn2nc3c(c2C(=O)N(C)O1)CN(C(=O)Nc1cccc(Cl)c1)CC3` (centres unmarked) [Compound 063, N-(3-chlorophenyl)-2,4-dimethyl-1-oxo-1,4,5,8,9,11-hexahydropyrido[4′,3′:3,4]pyrazole [5,1-d][1,2,5]oxadiazepine-10(2H)-carboxamide], for which the EC50 under setting [2] lay within 1 to 100 nM.
Take `C[C@@H]1Cc2nn3c(c2CN1C(=O)Nc1ccc(F)c(Cl)c1)C(=O)N(C)O[C@@H](CO)C3` (stereo in doubt) [Compound 069_E3, (4R*,9R*)—N-(3-chloro-4-fluorophenyl)-4-(hydroxymethyl)-2,9-dimethyl-1-oxo-1,4,5,8,9,11-hexahydropyrido[4′,3′:3,4]pyrazolo[5,1-d][1,2,5]oxadiazepine-10(2H)-carboxamide]: the EC50 under setting [2] is 100 to 500 nM.
On the same count and under the same terms, with `CN1OC(CO)Cn2nc3c(c2C1=O)CN(C(=O)Nc1ccc(F)c(Cl)c1)CC3` (single isomer, unassigned) [Compound 031_E1, (S*)—N-(3-chloro-4-fluorophenyl)-4-(hydroxymethyl)-2-methyl-1-oxo-1,4,5,8,9,11-hexahydropyrido[4′,3′:3,4]pyrazolo[5,1-d][1,2,5]oxadiazepine-10(2H)-carboxamide] the figure was 1 to 100 nM.
The same measure, in the same setting: with `CN1OC(CNCC(F)F)Cn2nc3c(c2C1=O)CN(C(=O)Nc1ccc(F)c(C(F)(F)F)c1F)CC3` (single isomer, unassigned) [Compound 191_E1, (S*)—N-(2,4-difluoro-3-(trifluoromethyl)phenyl)-4-(((2,2-difluoroethyl)amino)methyl)-2-methyl-1-oxo-1,4,5,8,9,11-hexahydropyrido[4′,3′:3,4]pyrazolo[5,1-d][1,2,5]oxadiazepine-10(2H)-carboxamide] the figure was 1 to 100 nM; with `C[C@@H]1Cc2nn3c(c2CN1C(=O)Nc1ccc(F)c(C#N)c1)C(=O)N(C)OCC3` [Compound 079, (R)—N-(3-cyano-4-fluorophenyl)-2,9-dimethyl-1-oxo-1,4,5,8,9,11-hexahydropyrido[4′,3′:3,4]pyrazolo[5,1-d][1,2,5]oxadiazepine-10(2H)-carboxamide], 1 to 100 nM; with `C[C@@H]1Cc2nn3c(c2CN1C(=O)Nc1ccc(F)c(C(F)(F)F)c1)C(=O)N(C)OC(CO)C3` (stereo in doubt) [Compound 082_E1, (4S*,9R)—N-(4-fluoro-3-(trifluoromethyl)phenyl)-4-(hydroxymethyl)-2,9-dimethyl-1-oxo-1,4,5,8,9,11-hexahydropyrido[4′,3′:3,4]pyrazolo[5,1-d][1,2,5]oxadiazepine-10(2H)-carboxamide], 1 to 100 nM.
Still for that read-out and setting: in the case of `CN1OC(CNC(=O)OC2CC2)Cn2nc3c(c2C1=O)CN(C(=O)Nc1ccc(F)c(Cl)c1)CC3` (centres unmarked) [Compound 203, cyclopropyl ((10-((3-chloro-4-fluorophenyl)carbamoyl)-2-methyl-1-oxo-1,2,4,5,8,9,10,11-octahydropyrido[4′,3′:3,4]pyrazolo[5,1-d][1,2,5]oxadiazepin-4-yl)methyl)carbamate] it was 1 to 100 nM.
On to `CN(CC(F)F)C(=O)C1Cn2nc3c(c2C(=O)N(C)O1)CN(C(=O)Nc1ccc(F)c(C#N)c1F)CC3` (centres unmarked) [Compound 161, N10-(3-cyano-2,4-difluorophenyl)-N4-(2,2-difluoroethyl)-N4,2-dimethyl-1-oxo-1,4,5,8,9,11-hexahydropyrido[4′,3′:3,4]pyrazolo[5,1-d][1,2,5]oxadiazepine-4,10(2H)-dicarboxamide], for which, under setting [2], the EC50 was 1 to 100 nM.
In the case of `CN1OC(CNC(=O)C(F)(F)F)Cn2nc3c(c2C1=O)CN(C(=O)Nc1ccc(F)c(Cl)c1)CC3` (centres unmarked) [Compound 163, N-(3-chloro-4-fluorophenyl)-2-methyl-1-oxo-4-((2,2,2-trifluoroacetamido)methyl)-1,4,5,8,9,11-hexahydropyrido[4′,3′:3,4]pyrazolo[5,1-d][1,2,5]oxadiazepine-10(2H)-carboxamide], where the note is “Hepatitis B virus, HepG2.2.15, read-out: DNA EC50”, the EC50 lay within 1 to 100 nM.
As for `CN1OC(CO)Cn2nc3c(c2C1=O)CN(C(=O)Nc1ccc(F)c(C(F)(F)F)c1)CC3` (single isomer, unassigned) [Compound 011_E1, (S*)—N-(4-fluoro-3-(trifluoromethyl)phenyl)-4-(hydroxymethyl)-2-methyl-1-oxo-1,4,5,8,9,11-hexahydropyrido[4′,3′:3,4]pyrazolo[5,1-d][1,2,5]oxadiazepine-10(2H)-carboxamide], the EC50 under setting [2] lay within 1 to 100 nM.
On the same count and under the same terms, with `CN1OC(CO)Cn2nc3c(c2C1=O)CN(C(=O)Nc1ccc(Cl)c(C(F)(F)F)c1)CC3` (centres unmarked) [Compound 025, N-(4-chloro-3-(trifluoromethyl)phenyl)-4-(hydroxymethyl)-2-methyl-1-oxo-1,4,5,8,9,11-hexahydropyrido[4′,3′:3,4]pyrazolo[5,1-d][1,2,5]oxadiazepine-10(2H)-carboxamide] the figure was 1 to 100 nM.
`CC(=O)OCC1Cn2nc3c(c2C(=O)N(C)O1)CN(C(=O)Nc1ccc(F)c(Cl)c1)CC3` (centres unmarked) [Compound 052, (10-((3-chloro-4-fluorophenyl)carbamoyl)-2-methyl-1-oxo-1,2,4,5,8,9,10,11-octahydropyrido[4′,3′:3,4]pyrazolo[5,1-d][1,2,5]oxadiazepin-4-yl)methyl acetate]: the EC50 under setting [2] is 1 to 100 nM.
Same read-out and setting: with `CN1OC(CN)Cn2nc3c(c2C1=O)CN(C(=O)Nc1ccc(F)c(Cl)c1)CC3` (centres unmarked) [Compound 113, 4-(aminomethyl)-N-(3-chloro-4-fluoro-phenyl)-2-methyl-1-oxo-5,8,9,11-tetrahydro-4H-pyrido[2,3]pyrazolo[2,4-d][1,2,5]oxadiazepine-10-carboxamide] the figure was 1 to 100 nM.
The same measure, in the same setting: with `C[C@@H]1Cc2nn3c(c2CN1C(=O)Nc1ccc(F)c(C#N)c1)C(=O)N(C)OC(COCC(F)F)C3` (stereo in doubt) [Compound 124_D1, (4S*,9R)—N-(3-cyano-4-fluorophenyl)-4-((2,2-difluoroethoxy)methyl)-2,9-dimethyl-1-oxo-1,4,5,8,9,11-hexahydropyrido[4′,3′:3,4]pyrazolo[5,1-d][1,2,5]oxadiazepine-10(2H)-carboxamide] the figure was 1 to 100 nM.
On the same count and under the same terms, in the case of `C[C@@H]1Cc2nn3c(c2CN1C(=O)Nc1cc(F)c(F)c(Cl)c1)C(=O)N(C)OCC3` [Compound 081, (R)—N-(3-chloro-4,5-difluorophenyl)-2,9-dimethyl-1-oxo-1,4,5,8,9,11-hexahydropyrido[4′,3′:3,4]pyrazolo[5,1-d][1,2,5]oxadiazepine-10(2H)-carboxamide] it was 1 to 100 nM.
Turning to `C[C@@H]1Cc2nn3c(c2CN1C(=O)Nc1cc(Cl)c(F)cc1F)C(=O)N(C)OC(COCC(F)F)C3` (stereo partly drawn) [Compound 127_D1, (45*,9R)—N-(5-chloro-2,4-difluorophenyl)-4-((2,2-difluoroethoxy)methyl)-2,9-dimethyl-1-oxo-1,4,5,8,9,11-hexahydropyrido[4′,3′:3,4]pyrazolo[5,1-d][1,2,5]oxadiazepine-10(2H)-carboxamide], the EC50 under setting [1] lay within 100 to 500 nM.
Still for that read-out and setting: in the case of `Cc1cc(NC(=O)N2Cc3c(nn4c3C(=O)N(C)OC(CNCC(F)F)C4)C[C@H]2C)ccc1F` (stereo in doubt) [Compound 185_D2, (4R*,9R)-4-(((2,2-difluoroethyl)amino)methyl)-N-(4-fluoro-3-methylphenyl)-2,9-dimethyl-1-oxo-1,4,5,8,9,11-hexahydropyrido[4′,3′:3,4]pyrazolo[5,1-d][1,2,5]oxadiazepine-10(2H)-carboxamide] it was 1 to 100 nM.
As to `Cc1cc(NC(=O)N2Cc3c(nn4c3C(=O)N(C)OC(CNCC(F)F)C4)C[C@H]2C)ccc1F` (stereo in doubt) [Compound 185_D1, (4S*,9R)-4-(((2,2-difluoroethyl)amino)methyl)-N-(4-fluoro-3-methylphenyl)-2,9-dimethyl-1-oxo-1,4,5,8,9,11-hexahydropyrido[4′,3′:3,4]pyrazolo[5,1-d][1,2,5]oxadiazepine-10(2H)-carboxamide], the EC50 under setting [2] is 1 to 100 nM.
On to `CCOCC1Cn2nc3c(c2C(=O)N(C)O1)CN(C(=O)Nc1ccc(F)c(Cl)c1)CC3` (centres unmarked) [Compound 101, N-(3-chloro-4-fluoro-phenyl)-4-(ethoxymethyl)-2-methyl-1-oxo-5,8,9,11-tetrahydro-4H-pyrido[2,3]pyrazolo[2,4-d][1,2,5]oxadiazepine-10-carboxamide], for which, under setting [2], the EC50 was in the range of 1 to 100 nM.
Still for that read-out and setting: with `Cc1cc(NC(=O)N2CCc3nn4c(c3C2)C(=O)N(C)OC(CF)C4)ccc1F` (single isomer, unassigned) [Compound 043_E1, (S*)—N-(4-fluoro-3-methylphenyl)-4-(fluoromethyl)-2-methyl-1-oxo-1,4,5,8,9,11-hexahydropyrido[4′,3′:3,4]pyrazolo[5,1-d][1,2,5]oxadiazepine-10(2H)-carboxamide] the figure was 1 to 100 nM.
As for `C[C@@H]1Cc2nn3c(c2CN1C(=O)Nc1ccc(F)c(C(F)(F)F)c1)C(=O)N(C)OCC3` [Compound 076, (R)—N-(4-fluoro-3-(trifluoromethyl)phenyl)-2,9-dimethyl-1-oxo-1,4,5,8,9,11-hexahydropyrido[4′,3′:3,4]pyrazolo[5,1-d][1,2,5]oxadiazepine-10(2H)-carboxamide], the EC50 under setting [2] lay in the range of 1 to 100 nM.
